The source of these data is patent US20240058450A1, “BCL-XL Inhibitory Compounds Having Low Cell Permeability and Antibody Drug Conjugates Including the Same” (AbbVie Inc., priority 2014, published 2024).

SMILES strings stand for the structures. Like-named read-outs stand apart in the source and are kept apart here.

For one test, the target named is Bcl-xL (Homo sapiens, UniProt Q07817). The test is described as follows: Time Resolved-Fluorescence Resonance Energy Transfer (TR-FRET) binding assay, competition with probe F-Bak. Here is the method:
Tb-anti-GST antibody was purchased from Invitrogen (Catalog No. PV4216).
For the assay, test compounds were serially diluted in DMSO starting at 50 μM (2× starting concentration; 10% DMSO) and 10 μL transferred into a 384-well plate. 10 μL of a protein/probe/antibody mix was then added to each well at final concentrations listed below:
The samples were then mixed on a shaker for 1 minute and incubated for an additional 2 hours at room temperature. For each assay plate, a probe/antibody and protein/antibody/probe mixture were included as a negative and a positive control, respectively. Fluorescence was measured on the Envision (Perkin Elmer) using a 340/35 nm excitation filter and 520/525 (F-Bak) and 495/510 nm (Tb-labeled anti-his antibody) emission filters. Dissociation constants (Ki) were determined using Wang's equation (Wang, 1995, FEBS Lett. 360:111-114). The TR-FRET assay can be performed in the presence of varying concentrations of human serum (HS) or fetal bovine serum (FBS). Compounds were tested both without HS and in the presence of 1% HS.

Test [1] concerns Molt-4 human acute lymphoblastic leukemia cells. The experiment in a line: Molt-4 cell viability assay (CellTiter-Glo, 48 hours, 10% HS). The class given is cell-based. The note with it: Homo sapiens, MOLT-4, 48 h, non-permeabilized cells. On the procedure: The ability of Bcl-xL inhibitors that are able to traverse cell membranes to inhibit Bcl-xL can be determined in cell-based killing assays using a variety of cell lines and mouse tumor models. For example, their activity on cell viability can be assessed on a panel of cultured tumorigenic and non-tumorigenic cell lines, as well as primary mouse or human cell populations.
In one exemplary set of conditions, Molt-4 (ATCC, Manassas, VA) human acute lymphoblastic leukemia cells were plated 12,500 cells per well in 384-well tissue culture plates (Corning, Corning, NY) in a total volume of 25 μL tissue culture medium supplemented with 10% human serum (Sigma-Aldrich, St. Louis, MO) and treated with a 3-fold serial dilution of the compounds of interest from 10 μM to 0.0005 μM. Each concentration was tested in duplicate at least 3 separate times. The number of viable cells following 48 hours of compound treatment was determined using the CellTiter-Glo®, Luminescent Cell Viability Assay according to the manufacturer's recommendations (Promega Corp., Madison, WI). Compounds were tested in the presence of 10% HS.
(In general: ATP-based viability assays read luminescence as a measure of living cells.)

The mark [2] stands for this setting: in the presence of 1% HS, read-out: Bcl-xL Binding Ki (nM, 1% HS).
[3] abbreviates: without HS, read-out: Bcl-xL Binding Ki.

Sequence of Bcl-xL (Q07817 whole entry): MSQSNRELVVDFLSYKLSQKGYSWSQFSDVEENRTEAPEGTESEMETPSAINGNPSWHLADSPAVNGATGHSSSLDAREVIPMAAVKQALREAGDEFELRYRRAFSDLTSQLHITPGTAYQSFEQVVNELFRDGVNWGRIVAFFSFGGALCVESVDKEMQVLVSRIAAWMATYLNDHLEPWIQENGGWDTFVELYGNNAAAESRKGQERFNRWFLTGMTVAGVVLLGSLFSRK

The term Ki denotes a dissociation constant, usually derived from enzyme kinetics or from competition with a known ligand. The EC50 is the concentration at which the effect is half-maximal. A low value points to a more potent agent. As to `Cc1c(-c2ccc(N3CCc4cccc(C(=O)Nc5nc6ccccc6s5)c4C3)nc2C(=O)O)cnn1CC12CC3(C)CC(C)(C1)CC(OCCNCCOCCOCC(=O)O)(C3)C2` [Example 1.1, 6-[8-(1,3-benzothiazol-2-ylcarbamoyl)-3,4-dihydroisoquinolin-2 (1H)-yl]-3-[1-({3-[2-({2-[2-(carboxymethoxy)ethoxy]ethyl}amino)ethoxy]-5,7-dimethyltricyclo[3.3.1.1^3,7]dec-1-yl]methyl)-5-methyl-1H-pyrazol-4-yl]pyridine-2-carboxylic acid], the figures for the Ki on Bcl-xL (setting [2]) and on Bcl-xL (setting [3]) were 0.09 nM and less than 0.001 nM, respectively. The compound further displayed an EC50 in test [1] of 26 nM.
On to `Cc1c(-c2ccc(N3CCc4cccc(C(=O)Nc5nc6ccccc6s5)c4C3)nc2C(=O)O)cnn1CC12CC3(C)CC(C)(C1)CC(OCCNCCS(=O)(=O)N[C@H]1C(O)O[C@H](CO)[C@@H](O)[C@@H]1O)(C3)C2` (stereo partly drawn) [Example 1.3, 2-{[(2-{[2-({3-[(4-{6-[8-(1,3-benzothiazol-2-ylcarbamoyl)-3,4-dihydroisoquinolin-2 (1H)-yl]-2-carboxypyridin-3-yl}-5-methyl-1H-pyrazol-1-yl)methyl]-5,7-dimethyltricyclo[3.3.1.1^3,7]dec-1-yl)oxy)ethyl]amino)ethyl)sulfonyl]amino}-2-deoxy-D-glucopyranose], for which the inhibition constant Ki on Bcl-xL (setting [2]) came to 0.18 nM; on Bcl-xL (setting [3]), 0.0011 nM. The compound also registered an EC50 in test [1] of 23 nM.
As for `Cc1c(-c2ccc(N3CCc4cccc(C(=O)Nc5nc6ccccc6s5)c4C3)nc2C(=O)O)cnn1CC12CC3(C)CC(C)(C1)CC(OCCNCC(O)CO)(C3)C2` (centres unmarked) [Example 1.7, 6-[8-(1,3-benzothiazol-2-ylcarbamoyl)-3,4-dihydroisoquinolin-2 (1H)-yl]-3-{1-[(3-{2-[(2,3-dihydroxypropyl)amino]ethoxy}-5,7-dimethyltricyclo[3.3.1.1^3,7]dec-1-yl)methyl]-5-methyl-1H-pyrazol-4-yl}pyridine-2-carboxylic acid], the Ki at Bcl-xL (setting [2]) came to 0.24 nM. Also, in test [1], it took 12 nM to reach a half-maximal effect (EC50).
With `Cc1c(-c2ccc(N3CCc4cccc(C(=O)Nc5nc6ccccc6s5)c4C3)nc2C(=O)O)cnn1CC12CC3(C)CC(C)(C1)CC(OCCNCc1ccc(S(=O)(=O)N[C@@H]4[C@@H](O)[C@H](O)[C@@H](CO)O[C@H]4O)cc1)(C3)C2` [Example 1.8, 2-({[4-({[2-({3-[(4-{6-[8-(1,3-benzothiazol-2-ylcarbamoyl)-3,4-dihydroisoquinolin-2 (1H)-yl]-2-carboxypyridin-3-yl}-5-methyl-1H-pyrazol-1-yl)methyl]-5,7-dimethyltricyclo[3.3.1.1^3,7]dec-1-yl}oxy)ethyl]amino}methyl)phenyl]sulfonyl}amino)-2-deoxy-beta-D-glucopyranose], the Ki is 0.19 nM on Bcl-xL (setting [2]) and 0.0019 nM at Bcl-xL (setting [3]). The response in test [1] was half-maximal at 108 nM (EC50).
`Cc1c(-c2ccc(N3CCc4cccc(C(=O)Nc5nc6ccccc6s5)c4C3)nc2C(=O)O)cnn1CC12CC3(C)CC(C)(C1)CC(OCCNCCc1cn([C@@H]4O[C@H](C(=O)O)[C@@H](O)[C@H](O)[C@H]4O)nn1)(C3)C2` [Example 1.9, 8-(1,3-benzothiazol-2-ylcarbamoyl)-2-{6-carboxy-5-[1-({3-[2-({2-[1-(beta-D-glucopyranuronosyl)-1H-1,2,3-triazol-4-yl]ethyl}amino)ethoxy]-5,7-dimethyltricyclo[3.3.1.1^3,7]dec-1-yl}methyl)-5-methyl-1H-pyrazol-4-yl]pyridin-2-yl}-1,2,3,4-tetrahydroisoquinoline]: the Ki was 0.047 nM at Bcl-xL (setting [2]) and less than 0.001 nM on Bcl-xL (setting [3]).
On to `Cc1c(-c2ccc(N3CCc4cccc(C(=O)Nc5nc6ccccc6s5)c4C3)nc2C(=O)O)cnn1CC12CC3(C)CC(C)(C1)CC(OCCOCCNCCCP(=O)(O)O)(C3)C2` [Example 1.16, 6-[8-(1,3-benzothiazol-2-ylcarbamoyl)-3,4-dihydroisoquinolin-2 (1H)-yl]-3-(1-{[3,5-dimethyl-7-(2-{2-[(3-phosphonopropyl)amino]ethoxy}ethoxy)tricyclo[3.3.1.1^3,7]dec-1-yl]methyl}-5-methyl-1H-pyrazol-4-yl}pyridine-2-carboxylic acid], for which the figures for the Ki on Bcl-xL (setting [2]) and on Bcl-xL (setting [3]) were 0.17 nM and less than 0.001 nM, respectively. Besides, it took 218 nM to reach a half-maximal effect in test [1] (EC50).
Regarding `Cc1c(-c2ccc(N3CCc4cccc(C(=O)Nc5nc6ccccc6s5)c4C3)nc2C(=O)O)cnn1CC12CC3(C)CC(C)(C1)CC(OCCN(C)C(=O)[C@@H](N)CC(=O)O)(C3)C2` [Example 1.17, 3-{1-[(3-{2-[L-alpha-aspartyl(methyl)amino]ethoxy}-5,7-dimethyltricyclo[3.3.1.1^3,7]dec-1-yl)methyl]-5-methyl-1H-pyrazol-4-yl}-6-[8-(1,3-benzothiazol-2-ylcarbamoyl)-3,4-dihydroisoquinolin-2 (1H)-yl]pyridine-2-carboxylic acid], the figures for the Ki at Bcl-xL (setting [2]) and at Bcl-xL (setting [3]) were 0.3 nM and 0.022 nM, respectively. The compound further yielded an EC50 in test [1] of 576 nM.
In the same order, the values of `Cc1c(-c2ccc(-c3ccc4c(c3)N(C(=O)Nc3nc5ccccc5s3)CCC4)nc2C(=O)O)cnn1CC12CC3(C)CC(C)(C1)CC(OCCN(C)C(=O)[C@@H](N)CS(=O)(=O)O)(C3)C2` [Example 1.21, 6-[1-(1,3-benzothiazol-2-ylcarbamoyl)-1,2,3,4-tetrahydroquinolin-7-yl]-3-(1-[(3,5-dimethyl-7-(2-[methyl(3-sulfo-L-alanyl)amino]ethoxy}tricyclo[3.3.1.1^3,7]dec-1-yl)methyl]-5-methyl-1H-pyrazol-4-yl)pyridine-2-carboxylic acid] are 0.22 nM, 0.004 nM and 420 nM.
As for `Cc1c(-c2ccc(-c3ccc4c(c3)N(C(=O)Nc3nc5ccccc5s3)CCC4)nc2C(=O)O)cnn1CC12CC3(C)CC(C)(C1)CC(OCCN(C)C1CNC1)(C3)C2` [Example 1.65, 3-{1-[(3-{2-[azetidin-3-yl(methyl)amino]ethoxy}-5,7-dimethyltricyclo[3.3.1.1^3,7]dec-1-yl)methyl]-5-methyl-1H-pyrazol-4-yl}-6-[1-(1,3-benzothiazol-2-ylcarbamoyl)-1,2,3,4-tetrahydroquinolin-7-yl]pyridine-2-carboxylic acid], the values for the Ki on Bcl-xL (setting [2]) and at Bcl-xL (setting [3]) were 0.099 nM and less than 0.01 nM, respectively.
Turning to `CO[C@H]1O[C@@H](Cn2cc(CCCNCCOC34CC5(C)CC(C)(CC(Cn6ncc(-c7ccc(N8CCc9cccc(C(=O)Nc%10nc%11ccccc%11s%10)c9C8)nc7C(=O)O)c6C)(C5)C3)C4)nn2)[C@H](O)[C@@H](O)[C@@H]1O` [Example 1.67, methyl 6-[4-(3-{[2-({3-[(4-{6-[8-(1,3-benzothiazol-2-ylcarbamoyl)-3,4-dihydroisoquinolin-2 (1H)-yl]-2-carboxypyridin-3-yl}-5-methyl-1H-pyrazol-1-yl)methyl]-5,7-dimethyltricyclo[3.3.1.1^3,7]dec-1-yl}oxy)ethyl]amino}propyl)-1H-1,2,3-triazol-1-yl]-6-deoxy-beta-L-glucopyranoside], the Ki at Bcl-xL (setting [2]) was 0.51 nM; at Bcl-xL (setting [3]), less than 0.01 nM.
Turning to `Cc1c(-c2ccc(N3CCc4cccc(C(=O)Nc5nc6ccccc6s5)c4C3)nc2C(=O)O)cnn1CC12CC3(C)CC(C)(C1)CC(NC(=O)CNCCS(=O)(=O)O)(C3)C2` [Example 1.89, 6-{8-[(1,3-benzothiazol-2-yl)carbamoyl]-3,4-dihydroisoquinolin-2 (1H)-yl)-3-{1-[(3,5-dimethyl-7-{2-[(2-sulfoethyl)amino]acetamido}tricyclo[3.3.1.1^3,7]decan-1-yl)methyl]-5-methyl-1H-pyrazol-4-yl}pyridine-2-carboxylic acid], the Ki at Bcl-xL (setting [2]) was 0.97 nM; on Bcl-xL (setting [3]), less than 0.01 nM.
In the same order, the values of `Cc1c(-c2ccc(N3CCc4cccc(C(=O)Nc5nc6ccccc6s5)c4C3)nc2C(=O)O)cnn1CC12CC3(C)CC(C)(C1)CC(SCCNCCS(=O)(=O)O)(C3)C2` [Example 1.90, 6-[8-(1,3-benzothiazol-2-ylcarbamoyl)-3,4-dihydroisoquinolin-2 (1H)-yl]-3-(1-{[3,5-dimethyl-7-((2-[(2-sulfoethyl)amino]ethyl)sulfanyl)tricyclo[3.3.1.1^3,7]dec-1-yl]methyl)-5-methyl-1H-pyrazol-4-yl)pyridine-2-carboxylic acid] are 4.2 nM and 0.13 nM.
In the same order, the values of `Cc1c(-c2ccc(N3CCc4cccc(C(=O)Nc5nc6ccccc6s5)c4C3)nc2C(=O)O)cnn1CC12CC3(C)CC(C)(CC(CCCNCCS(=O)(=O)O)(C3)C1)C2` [Example 1.91, 6-{8-[(1,3-benzothiazol-2-yl)carbamoyl]-3,4-dihydroisoquinolin-2 (1H)-yl}-3-{1-[(3,5-dimethyl-7-{3-[(2-sulfoethyl)amino]propyl}tricyclo[3.3.1.1^3,7]decan-1-yl)methyl]-5-methyl-1H-pyrazol-4-yl}pyridine-2-carboxylic acid] are 2.8 nM and 0.064 nM.
